According to article PMC10600239, “Selective MCL-1 inhibitor ABBV-467 is efficacious in tumor models but is associated with cardiac troponin increases in patients” (Communications Medicine, 2023):
Values joined by “and” are separate entries in the source; they are usually repeats but may differ in a detail not shown here. Equal values may be shown once.

Test system: troponin
Test: Troponin monitoring in phase 1 patients
Format: in vivo, human
Conditions: for Troponin I, Local Lab: reference range 2.3 to 20 ng/L; for Troponin T: patient, normal range 0-0.014
Procedure: Blood samples for plasma ABBV-467 concentration analysis were collected on days 1, 2, 3, and 15–17 of cycle 1 as well as on days 1 of cycles for PK analysis. Plasma samples of ABBV-467 were quantified using a validated LC-tandem MS with a lower limit of detection of 3 ng/mL. ABBV-467 PK parameters were calculated using standard non-compartmental approaches with Phoenix, WinNonlin (Version 8.0, Certara). AE severity was graded according to the National Cancer Institute Common Terminology Criteria for Adverse Events v5.0 for up to 30 days after the last dose. Analyses of AEs will include only treatment-emergent AEs. Triplicate ECGs were performed on days 1, 2, 15, and 16 of cycle 1. […] An echocardiogram was performed at screening and day 1 of cycle 2 and cycle 6. […]
Creatine Phosphokinase and Troponin Enzymes
Blood samples will be collected on the days specified in Section 2 for analysis of creatine phosphokinase and troponin serum concentrations. Clinical significance of these enzymes will be evaluated within the […]
context of the study. Samples should also be obtained as clinically indicated in the opinion of the investigator.
Table 9. Creatine Phosphokinase and Troponin Sampling Times […]
4, 8, 24, and 48 hours post-EOI
4, 8, 24 and 48 hours post-EOI
Sample times are relative to ABBV-467 infusion. […]

[1] = of the 4 patients with elevations

## Cc1c(Cl)c2c(Cl)c(C)c1-c1c(-c3ccc(F)cc3)sc3ncnc(c13)O[C@@H](C(=O)O)Cc1cc(ccc1OCc1ccnc(-c3ccc(OC[C@H]4COCCO4)cc3)n1)OC[C@@H](CN1CCN(C)CC1)O2 [ABBV-467]
Patient 1, C1D1, study day 1, reference range ≤ 0.04 ng/mL, Advia Centaur TnI-Ultra Assay
  Troponin I, Central Laboratory: <0.03 ng/mL
Patient 1, C1D2, study day 2, reference range ≤ 0.04 ng/mL
  Troponin I, Central Laboratory: <0.03 ng/mL
Patient 1, C1D15, study day 15, reference range ≤ 0.04 ng/mL
  Troponin I, Central Laboratory: <0.03 ng/mL
Patient 1, C1D16, study day 16, reference range ≤ 0.04 ng/mL
  Troponin I, Central Laboratory: <0.03 ng/mL
Patient 1, C1D17, study day 17, reference range ≤ 0.04 ng/mL
  Troponin I, Central Laboratory: <0.03 ng/mL
Patient 2, C1D1, study day 1, reference range ≤0.04 ng/mL
  Troponin I, Central Lab: <0.03 ng/mL
Patient 2, C1D2, study day 2, reference range ≤0.04 ng/mL
  Troponin I, Central Lab: <0.03 ng/mL
Patient 2, C1D3, study day 3, reference range ≤0.04 ng/mL
  Troponin I, Central Lab: <0.03 ng/mL
Patient 2, C1D8, study day 8, reference range ≤0.04 ng/mL
  Troponin I, Central Lab: <0.03 ng/mL
Patient 2, C1D16, study day 16, 4 hr postdose, reference range ≤0.04 ng/mL
  Troponin I, Central Lab: 0.24 (4 hr postdose) ng/ml
Patient 2, C1D16, study day 16, 8 hr postdose, reference range ≤0.04 ng/mL
  Troponin I, Central Lab: <0.03 (8 hr postdose) ng/ml
Patient 2, C1D17, study day 17, reference range ≤0.04 ng/mL
  Troponin I, Central Lab: 0.15 ng/mL
Patient 2, C1D18, study day 18, reference range ≤0.04 ng/mL
  Troponin I, Central Lab: 0.08 ng/mL
Patient 3, C1D1, study day 1, Beckman Coulter ACCESS high sensitivity Troponin I assay
  Troponin I, Local Lab: 8.1 ng/L
Patient 3, C1D1, study day 1, reference range ≤ 0.04 ng/mL
  Troponin I, Central Lab: <0.03 ng/mL
Patient 3, C1D2, study day 2
  Troponin I, Local Lab: 7.3 ng/L
Patient 3, C1D2, study day 2, reference range ≤ 0.04 ng/mL
  Troponin I, Central Lab: <0.03 ng/mL
Patient 3, C1D3, study day 3
  Troponin I, Local Lab: 10.2 ng/L
Patient 3, C1D3, study day 3, reference range ≤ 0.04 ng/mL
  Troponin I, Central Lab: <0.03 ng/mL
Patient 3, C1D4, study day 4
  Troponin I, Local Lab: 7.4 ng/L
Patient 3, C1D5, study day 5
  Troponin I, Local Lab: 7.3 ng/L
Patient 3, C1D9, study day 9
  Troponin I, Local Lab: 7.8 ng/L
Patient 3, C1D11, study day 11
  Troponin I, Local Lab: 37.7 ng/L
Patient 3, C1D12, study day 12
  Troponin I, Local Lab: 27.2 ng/L
Patient 3, C1D12, study day 12, reference range ≤ 0.04 ng/mL
  Troponin I, Central Lab: 0.05 ng/mL
Patient 3, C1D15 (No infusion; drug discontinued), study day 15
  Troponin I, Local Lab: 16.5 ng/L
Patient 4, C1D1, study day 1, 4hr postdose, reference range ≤ 0.04 ng/mL
  Troponin I, Central Lab: <0.03 (4hr postdose) ng/ml
Patient 4, C1D1, study day 1, 8hr postdose, reference range ≤ 0.04 ng/mL
  Troponin I, Central Lab: <0.03 (8hr postdose) ng/ml
Patient 4, C1D1, study day 1, predose, reference range ≤ 0.04 ng/mL
  Troponin I, Central Lab: <0.03 (predose) ng/ml
Patient 4, C1D2, study day 2, reference range ≤ 0.04 ng/mL
  Troponin I, Central Lab: <0.03 ng/mL
Patient 4, C1D3, study day 3, reference range ≤ 0.04 ng/mL
  Troponin I, Central Lab: <0.03 ng/mL
Patient 4, C1D15, study day 15, 4 hr postdose, reference range ≤ 0.04 ng/mL
  Troponin I, Central Lab: 0.06 (4 hr postdose) ng/ml
Patient 4, C1D15, study day 15, 8 hr postdose, reference range ≤ 0.04 ng/mL
  Troponin I, Central Lab: 0.04 ( 8 hr postdose) ng/ml
Patient 4, C1D15, study day 15, predose, reference range ≤ 0.04 ng/mL
  Troponin I, Central Lab: 0.04 (predose) ng/ml
Patient 4, C1D16, study day 16, reference range ≤ 0.04 ng/mL
  Troponin I, Central Lab: 0.04 ng/mL
Patient 4, C1D17, study day 17, reference range ≤ 0.04 ng/mL
  Troponin I, Central Lab: 0.05 ng/mL
Patient 4, C2D1, study day 29, postdose, reference range ≤ 0.04 ng/mL
  Troponin I, Central Lab: <0.03 (postdose) ng/ml
Patient 5, C1D1 4hr Post EOI, study day 1, reference range ≤0.04 ng/mL
  Troponin I, Central Laboratory: <0.03 ng/mL
Patient 5, C1D1 8hr post EOI, study day 1, reference range ≤0.04 ng/mL
  Troponin I, Central Laboratory: <0.03 ng/mL
Patient 5, C1D1 Predose, study day 1, reference range ≤0.04 ng/mL
  Troponin I, Central Laboratory: <0.03 ng/mL
Patient 5, C1D2 24h post EOI, study day 2, reference range ≤0.04 ng/mL
  Troponin I, Central Laboratory: <0.03 ng/mL
Patient 5, C1D3 48hr Post EOI, study day 3, reference range ≤0.04 ng/mL
  Troponin I, Central Laboratory: <0.03 ng/mL
Patient 5, C1D15 4hr Post EOI, study day 15, reference range ≤0.04 ng/mL
  Troponin I, Central Laboratory: <0.03 ng/mL
Patient 5, C1D15 8h post EOI, study day 15, reference range ≤0.04 ng/mL
  Troponin I, Central Laboratory: <0.03 ng/mL
Patient 5, C1D15 Predose, study day 15, reference range ≤0.04 ng/mL
  Troponin I, Central Laboratory: <0.03 ng/mL
Patient 5, C1D16 24h post EOI, study day 16, reference range ≤0.04 ng/mL
  Troponin I, Central Laboratory: <0.03 ng/mL
Patient 5, C1D17 48hr Post EOI, study day 17, reference range ≤0.04 ng/mL
  Troponin I, Central Laboratory: <0.03 ng/mL
Patient 6, C1D1 4hr Post EOI, study day 1, reference range ≤0.04 ng/mL
  Troponin I, Central Laboratory: <0.03 ng/mL
Patient 6, C1D1 8hr post EOI, study day 1, reference range ≤0.04 ng/mL
  Troponin I, Central Laboratory: <0.03 ng/mL
Patient 6, C1D1 Predose, study day 1, reference range ≤0.04 ng/mL
  Troponin I, Central Laboratory: <0.03 ng/mL
Patient 6, C1D2 24h post EOI, study day 2, reference range ≤0.04 ng/mL
  Troponin I, Central Laboratory: <0.03 ng/mL
Patient 6, C1D3 48hr Post EOI, study day 3, reference range ≤0.04 ng/mL
  Troponin I, Central Laboratory: <0.03 ng/mL
Patient 6, C1D15 4hr Post EOI, study day 15, reference range ≤0.04 ng/mL
  Troponin I, Central Laboratory: <0.03 ng/mL
Patient 6, C1D15 8h post EOI, study day 15, reference range ≤0.04 ng/mL
  Troponin I, Central Laboratory: <0.03 ng/mL
Patient 6, C1D15 Predose, study day 15, reference range ≤0.04 ng/mL
  Troponin I, Central Laboratory: <0.03 ng/mL
Patient 6, C1D16 24h post EOI, study day 16, reference range ≤0.04 ng/mL
  Troponin I, Central Laboratory: <0.03 ng/mL
Patient 6, C1D17 48hr Post EOI, study day 17, reference range ≤0.04 ng/mL
  Troponin I, Central Laboratory: <0.03 ng/mL
Patient 7, C1D1 4hr Post EOI, study day 1, reference range ≤0.04 ng/mL
  Troponin I, Central Laboratory: <0.03 ng/mL
Patient 7, C1D1 8hr post EOI, study day 1, reference range ≤0.04 ng/mL
  Troponin I, Central Laboratory: <0.03 ng/mL
Patient 7, C1D1 Predose, study day 1, reference range ≤0.04 ng/mL
  Troponin I, Central Laboratory: <0.03 ng/mL
Patient 7, C1D2 24h post EOI, study day 2, reference range ≤0.04 ng/mL
  Troponin I, Central Laboratory: <0.03 ng/mL
Patient 7, C1D3 48hr Post EOI, study day 3, reference range ≤0.04 ng/mL
  Troponin I, Central Laboratory: <0.03 ng/mL
Patient 7, C1D15 4hr Post EOI, study day 15, reference range ≤0.04 ng/mL
  Troponin I, Central Laboratory: <0.03 ng/mL
Patient 7, C1D15 8h post EOI, study day 15, reference range ≤0.04 ng/mL
  Troponin I, Central Laboratory: <0.03 ng/mL
Patient 7, C1D15 Predose, study day 15, reference range ≤0.04 ng/mL
  Troponin I, Central Laboratory: <0.03 ng/mL
Patient 7, C1D16 24h post EOI, study day 16, reference range ≤0.04 ng/mL
  Troponin I, Central Laboratory: <0.03 ng/mL
Patient 7, C1D17 48hr Post EOI, study day 17, reference range ≤0.04 ng/mL
  Troponin I, Central Laboratory: <0.03 ng/mL
Patient 8, C1D1 4hr Post EOI, study day 1, reference range ≤0.04 ng/mL
  Troponin I, Central Laboratory: <0.03 ng/mL
Patient 8, C1D1 8hr post EOI, study day 1, reference range ≤0.04 ng/mL
  Troponin I, Central Laboratory: <0.03 ng/mL
Patient 8, C1D1 Predose, study day 1, reference range ≤0.04 ng/mL
  Troponin I, Central Laboratory: <0.03 ng/mL
Patient 8, C1D2 24h post EOI, study day 2, reference range ≤0.04 ng/mL
  Troponin I, Central Laboratory: <0.03 ng/mL
Patient 8, C1D3 48hr Post EOI, study day 3, reference range ≤0.04 ng/mL
  Troponin I, Central Laboratory: <0.03 ng/mL
Patient 8, C1D15 4hr Post EOI, study day 15, reference range ≤0.04 ng/mL
  Troponin I, Central Laboratory: <0.03 ng/mL
Patient 8, C1D15 8h post EOI, study day 15, reference range ≤0.04 ng/mL
  Troponin I, Central Laboratory: <0.03 ng/mL
Patient 8, C1D15 Predose, study day 15, reference range ≤0.04 ng/mL
  Troponin I, Central Laboratory: <0.03 ng/mL
Patient 8, C1D16 24h post EOI, study day 16, reference range ≤0.04 ng/mL
  Troponin I, Central Laboratory: <0.03 ng/mL
Patient 8, C1D17 48hr Post EOI, study day 17, reference range ≤0.04 ng/mL
  Troponin I, Central Laboratory: 0.03 ng/mL
Across the studied dose range
  relation of grade ≥1 elevated troponin to peak plasma concentration and AUC: unrelated
All doses, N = 8
  patients with troponin elevations: 4 (50%) patients (%)
Dose 0.32 mg/kg
  patients with troponin elevations: 1 (12.5%) patients (%)
human, in vivo
  first blood draw post-infusion at which troponin elevations were detectable: 4 h
[1]
  patients with grade 1 troponin elevation: 3 (75%) patients (%)
  patients with grade 3 troponin elevation: 1 (25%) patients (%)
LBDY 1
  Troponin T: 0.011 µg/L
LBDY 9
  Troponin T: 0.021 µg/L
LBDY 11
  Troponin T: 0.038 µg/L
LBDY 12
  Troponin T: 0.032 µg/L
LBDY 15
  Troponin T: 0.018 µg/L and 0.019 µg/L
LBDY 16
  Troponin T: 0.021 µg/L
LBDY 17
  Troponin T: 0.024 µg/L
LBDY 18
  Troponin T: 0.027 µg/L
LBDY 19
  Troponin T: 0.025 µg/L
LBDY 22
  Troponin T: 0.015 µg/L
LBDY 23
  Troponin T: 0.019 µg/L
LBDY 25
  Troponin T: 0.024 µg/L
LBDY 26
  Troponin T: 0.019 µg/L
LBDY 30 (Note: 29)
  Troponin T: 0.021 µg/L
LBDY 36 (Note: missing)
  Troponin T: 0.018 µg/L
LBDY 61 (Note: missing)
  Troponin T: 0.016 µg/L
Single patient
  troponin I, grade 3 elevation, multiple of upper limit of normal: 1.9 × upper limit of normal
